Reference: US10562898B2, “Substituted benzenesulfonamides as inhibitors of alpha-4 beta-7 integrin activity” (EA PHARMA CO., LTD., priority 2016, dated 2020)

Target: T1, α4β7 integrin (Homo sapiens, UniProt P13612+P26010)
T1 construct: a cell line RPMI-8866, which is known to express α4β7 integrin; endogenous in cells; host or cells: RPMI-8866 (human B cell line)
T1 sequence (P13612 34-1032): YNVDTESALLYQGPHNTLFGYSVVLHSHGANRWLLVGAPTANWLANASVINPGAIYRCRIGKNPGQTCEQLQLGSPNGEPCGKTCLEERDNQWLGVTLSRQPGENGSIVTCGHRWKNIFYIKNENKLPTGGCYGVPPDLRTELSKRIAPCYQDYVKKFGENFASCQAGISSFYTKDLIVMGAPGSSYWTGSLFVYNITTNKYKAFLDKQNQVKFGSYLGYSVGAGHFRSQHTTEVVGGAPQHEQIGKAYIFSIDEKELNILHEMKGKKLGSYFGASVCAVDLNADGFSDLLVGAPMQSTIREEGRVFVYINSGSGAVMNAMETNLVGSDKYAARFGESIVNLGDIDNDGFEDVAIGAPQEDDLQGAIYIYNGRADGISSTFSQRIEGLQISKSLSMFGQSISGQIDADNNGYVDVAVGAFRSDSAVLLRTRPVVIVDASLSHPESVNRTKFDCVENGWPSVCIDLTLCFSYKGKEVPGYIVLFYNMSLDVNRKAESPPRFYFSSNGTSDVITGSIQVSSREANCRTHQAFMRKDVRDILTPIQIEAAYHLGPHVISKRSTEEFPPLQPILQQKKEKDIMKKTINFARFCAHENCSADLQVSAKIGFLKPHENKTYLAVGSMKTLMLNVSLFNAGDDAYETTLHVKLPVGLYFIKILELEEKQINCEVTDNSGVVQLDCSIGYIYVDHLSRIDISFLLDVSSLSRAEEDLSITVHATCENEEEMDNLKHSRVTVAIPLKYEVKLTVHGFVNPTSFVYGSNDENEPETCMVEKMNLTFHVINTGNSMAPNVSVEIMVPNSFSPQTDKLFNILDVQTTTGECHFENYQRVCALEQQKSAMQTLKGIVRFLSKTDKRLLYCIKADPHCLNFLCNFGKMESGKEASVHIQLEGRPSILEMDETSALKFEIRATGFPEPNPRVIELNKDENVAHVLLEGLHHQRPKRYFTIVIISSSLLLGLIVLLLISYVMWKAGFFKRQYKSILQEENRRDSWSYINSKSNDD
T1 sequence (P26010 20-798): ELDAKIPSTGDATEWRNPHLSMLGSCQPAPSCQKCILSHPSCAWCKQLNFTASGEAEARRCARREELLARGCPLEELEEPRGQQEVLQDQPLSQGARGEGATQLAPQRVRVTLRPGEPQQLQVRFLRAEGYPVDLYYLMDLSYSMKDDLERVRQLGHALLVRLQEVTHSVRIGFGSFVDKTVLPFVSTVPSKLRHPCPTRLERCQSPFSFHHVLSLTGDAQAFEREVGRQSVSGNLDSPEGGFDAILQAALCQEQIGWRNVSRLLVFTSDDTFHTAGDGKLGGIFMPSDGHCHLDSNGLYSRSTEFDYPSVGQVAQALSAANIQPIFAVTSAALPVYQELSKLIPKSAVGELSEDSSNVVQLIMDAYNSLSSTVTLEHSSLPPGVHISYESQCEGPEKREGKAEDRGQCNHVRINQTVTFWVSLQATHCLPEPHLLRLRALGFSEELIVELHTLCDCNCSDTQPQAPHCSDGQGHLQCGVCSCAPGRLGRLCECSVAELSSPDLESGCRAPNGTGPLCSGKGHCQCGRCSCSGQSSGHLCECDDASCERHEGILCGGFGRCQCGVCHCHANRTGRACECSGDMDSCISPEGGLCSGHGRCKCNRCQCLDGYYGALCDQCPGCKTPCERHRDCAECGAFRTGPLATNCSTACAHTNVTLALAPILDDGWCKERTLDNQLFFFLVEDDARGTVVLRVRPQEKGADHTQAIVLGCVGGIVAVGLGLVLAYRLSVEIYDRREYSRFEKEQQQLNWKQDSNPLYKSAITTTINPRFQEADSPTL
Experiment: MAdCAM-1/α4β7 integrin binding inhibitory activity evaluation test in presence of serum
Assay type: cell-based
Conditions: RPMI-8866 cells, recombinant mouse MAdCAM-1/Fc, 50% human serum; read-out: α4β7 Serum Added IC50
Experimental: (3) MAdCAM-1/α4β7 Integrin Binding Inhibitory Activity Evaluation Test in Presence of Serum (1)
Each test substance was measured in terms of an ability to inhibit the MAdCAM-1 binding of a human B cell line, namely, a cell line RPMI-8866, which is known to express α4β7 integrin.
A solution of recombinant mouse MAdCAM-1/Fc (R&D Systems, Inc.) (1 μg/mL) diluted with a buffer A (carbonate buffer, pH 9.6) was added in an amount of 50 μL/well to a 96-well microtiter plate, followed by incubation at 4° C. overnight. After the plate was washed with PBS once, 150 μL/well of Block Ace (Snow Brand Milk Products Co., Ltd.) was added, followed by incubation at room temperature for 2 hours. After removal, the plate was washed with PBS once.
Then, 100 μL of the RPMI-8866 cells (2×10^6 cells/mL) and 100 of the test substance at each of various concentrations diluted with a binding buffer (DMEM containing 40 mM HEPES, 0.2% BSA, and 4 mM MnCl2) were added to the plate coated with the MAdCAM-1/Fc (5×10^5 cells/well) such that 50% human serum was contained at the final concentration. Then, incubation was allowed to proceed at 30° C. for 15 to 60 minutes. After the cells were bound to the wells, the plate was washed with PBS to remove unbound cells. A buffer C (PBS containing 1.5% Triton X-100) was added in an amount 50 μL/well to the plate to lyse the bound RPMI-8866 cells. After 30 μL of a substrate buffer (Promega, CytoTox 96 Non-Radioactive Cytotoxicity Assay) was added to 30 μL of the cell lysate, a reaction was allowed to proceed at room temperature in the dark for 30 minutes. After 30 μL of a stop solution (Promega, CytoTox 96 Non-Radioactive Cytotoxicity Assay) was added to each, and then an absorbance at 490 nm was measured using a plate reader. The absorbance obtained here represents a detection result of an activity of lactate dehydrogenase (LDH) eluted in the supernatant of each well, that is, the absorbance is proportional to the number of RPMI-8866 cells bound to the MAdCAM-1 and thus remaining on the plate. The test was performed in duplicate. Provided that the absorbance of the well containing no test substance was 100%, a cell binding rate with the test substance at each of the various concentrations was figured out, and a concentration IC50 which brought about 50% binding inhibition was calculated.

Q: Cc1c(C)n(C)c(=O)n(-c2ccc(C[C@H](NC(=O)c3cc(F)c(NS(=O)(=O)c4ccc(NC(=O)C(C)(C)C)cc4)cc3F)C(=O)O)cn2)c1=O [Compound A28] was tested. Which IC50 did it give?
A: Its IC50 is 4.4 nM.

Q: Cn1c(=O)n(-c2ccc(C[C@H](NC(=O)c3cc(F)c(NS(=O)(=O)c4ccc(NC(=O)C5(c6ccccc6)CC5)cc4)cc3F)C(=O)O)cn2)c(=O)c2ccncc21 [Compound A29] was tested. Which IC50 did it give?
A: The IC50 was 54 nM.

Q: How did the IC50 turn out when Cc1c(C)n(C)c(=O)n(-c2ccc(C[C@H](NC(=O)c3cc(F)c(NS(=O)(=O)c4ccc(NC(=O)C5(c6ccccc6)CC5)cc4)cc3F)C(=O)O)cc2)c1=O [Compound A30] was run?
A: The IC50 was 43 nM.

Q: For Cn1c(=O)n(-c2ccc(C[C@H](NC(=O)c3cc(F)c(NS(=O)(=O)c4ccc(NC(=O)C(C)(C)C)cn4)cc3F)C(=O)O)cn2)c(=O)c2ccncc21 [Compound A31], which IC50 is on record?
A: Its IC50 is 5 nM.

Q: Which IC50 does the source give for Cc1c(C)n(C)c(=O)n(-c2ccc(C[C@H](NC(=O)c3cc(F)c(NS(=O)(=O)c4ccc(NC(=O)C(C)(C)C)cn4)cc3F)C(=O)O)cn2)c1=O [Compound A32] here?
A: Its IC50 is 3 nM.

Q: For Cn1c2c(c(=O)n(-c3ccc(C[C@H](NC(=O)c4cc(F)c(NS(=O)(=O)c5ccc(NC(=O)C(C)(C)C)cc5)cc4F)C(=O)O)cc3)c1=O)COCC2 [Compound A33], which IC50 is on record?
A: Its IC50 is 1.7 nM.

Q: Which IC50 does the source give for Cc1c(C)n(C)c(=O)n(-c2ccc(C[C@H](NC(=O)c3cc(F)c(NS(=O)(=O)c4ccc(-n5ccc(C6CCOCC6)cc5=O)cc4)cc3F)C(=O)O)cc2)c1=O [Compound A34] here?
A: Its IC50 is 24 nM.

Q: For Cc1c(C)n(C)c(=O)n(-c2ccc(C[C@H](NC(=O)c3cc(F)c(NS(=O)(=O)c4ccc(N(C)C(=O)C(C)(C)C)cc4)cc3F)C(=O)O)cc2)c1=O [Compound A35], which IC50 is on record?
A: The IC50 was 600 nM.

Q: Which IC50 does the source give for COc1cc2c(=O)n(-c3ccc(C[C@H](NC(=O)c4cc(F)c(NS(=O)(=O)c5ccc(NC(=O)C(C)(C)C)cc5)cc4F)C(=O)O)cc3)c(=O)n(C)c2cn1 [Compound A36] here?
A: The IC50 was 18 nM.

Q: Which IC50 does the source give for Cc1cn(C)c(=O)n(-c2ccc(C[C@H](NC(=O)c3cc(F)c(NS(=O)(=O)c4ccc(NC(=O)C(C)(C)C)cc4)cc3F)C(=O)O)cc2)c1=O [Compound A37] here?
A: Its IC50 is 6.6 nM.

Q: For CN1C(=O)N(c2ccc(S(=O)(=O)Nc3cc(F)c(C(=O)N[C@@H](Cc4ccc(-n5c(=O)c6ccncc6n(C)c5=O)nc4)C(=O)O)cc3F)cc2)C(=O)C1(C)C [Compound A38], which IC50 is on record?
A: The IC50 was 20 nM.

Q: Which IC50 does the source give for Cn1c2c(c(=O)n(-c3ccc(C[C@H](NC(=O)c4cc(F)c(NS(=O)(=O)c5ccc(NC(=O)C(C)(C)C)cc5)cc4F)C(=O)O)cn3)c1=O)CCOC2 [Compound A40] here?
A: The IC50 was 4.3 nM.

Q: For CN1CCc2c(n(C)c(=O)n(-c3ccc(C[C@H](NC(=O)c4cc(F)c(NS(=O)(=O)c5ccc(NC(=O)C(C)(C)C)cc5)cc4F)C(=O)O)cc3)c2=O)C1 [Compound A41], which IC50 is on record?
A: The IC50 was 1.9 nM.

Q: Cn1ccc(=O)n(-c2ccc(C[C@H](NC(=O)c3cc(F)c(NS(=O)(=O)c4ccc(NC(=O)C(C)(C)C)cc4)cc3F)C(=O)O)cc2)c1=O [Compound A42] was tested. Which IC50 did it give?
A: The IC50 was 9.8 nM.

Q: With Cn1cnc2c1c(=O)n(-c1ccc(C[C@H](NC(=O)c3cc(F)c(NS(=O)(=O)c4ccc(NC(=O)C(C)(C)C)cc4)cc3F)C(=O)O)cc1)c(=O)n2C [Compound A43] as the compound, how does the IC50 read?
A: Its IC50 is 5.8 nM.

Q: Cn1c2c(c(=O)n(-c3ccc(C[C@H](NC(=O)c4cc(F)c(NS(=O)(=O)c5ccc(NC(=O)C(C)(C)C)cc5)cc4F)C(=O)O)cn3)c1=O)COCC2 [Compound A44] was tested. Which IC50 did it give?
A: The IC50 was 2.6 nM.

Q: With Cc1cc(=O)n(-c2ccc(C[C@H](NC(=O)c3cc(F)c(NS(=O)(=O)c4ccc(NC(=O)C(C)(C)C)cc4)cc3F)C(=O)O)cn2)c(=O)n1C [Compound A45] as the compound, how does the IC50 read?
A: The IC50 was 8.4 nM.

Q: Which IC50 does the source give for Cc1cc(=O)n(-c2ccc(C[C@H](NC(=O)c3cc(F)c(NS(=O)(=O)c4ccc(NC(=O)C(C)(C)C)cc4)cc3F)C(=O)O)cc2)c(=O)n1C [Compound A46] here?
A: The IC50 was 7.6 nM.

Q: With Cn1c2c(c(=O)n(-c3ccc(C[C@H](NC(=O)c4cc(F)c(NS(=O)(=O)c5ccc(NC(=O)C(C)(C)C)cc5)cc4F)C(=O)O)nc3)c1=O)CCCC2 [Compound A47] as the compound, how does the IC50 read?
A: The IC50 was 15 nM.

Q: Cc1c(C)n(C(C)C)c(=O)n(-c2ccc(C[C@H](NC(=O)c3cc(F)c(NS(=O)(=O)c4ccc(NC(=O)C(C)(C)C)cc4)cc3F)C(=O)O)cc2)c1=O [Compound A48] was tested. Which IC50 did it give?
A: The IC50 was 22 nM.

Q: Cc1c(C)n(C)c(=O)n(-c2ccc(C[C@H](NC(=O)c3cc(F)c(NS(=O)(=O)c4cccc(NC(=O)C(C)(C)C)c4)cc3F)C(=O)O)cc2)c1=O [Compound A49] was tested. Which IC50 did it give?
A: Its IC50 is 45 nM.

Q: With Cc1c(C)n(C)c(=O)n(-c2ccc(C[C@H](NC(=O)c3cc(F)c(NS(=O)(=O)c4cccc(NC(=O)C(C)(C)C)c4)cc3F)C(=O)O)cn2)c1=O [Compound A50] as the compound, how does the IC50 read?
A: Its IC50 is 63 nM.

Q: With Cc1c(CO)c(=O)n(-c2ccc(C[C@H](NC(=O)c3cc(F)c(NS(=O)(=O)c4ccc(NC(=O)C(C)(C)C)cc4)cc3F)C(=O)O)cc2)c(=O)n1C [Compound A51] as the compound, how does the IC50 read?
A: The IC50 was 13 nM.

Q: With Cn1c2c(c(=O)n(-c3ccc(C[C@H](NC(=O)c4cc(F)c(NS(=O)(=O)c5ccc(NC(=O)C(C)(C)C)cc5)cc4F)C(=O)O)cn3)c1=O)CCCC2 [Compound A52] as the compound, how does the IC50 read?
A: The IC50 was 4.9 nM.

Q: For Cn1ccc(=O)n(-c2ccc(C[C@H](NC(=O)c3cc(F)c(NS(=O)(=O)c4ccc(NC(=O)C(C)(C)C)cc4)cc3F)C(=O)O)cn2)c1=O [Compound A53], which IC50 is on record?
A: The IC50 was 11 nM.

Q: Cc1cn(C)c(=O)n(-c2ccc(C[C@H](NC(=O)c3cc(F)c(NS(=O)(=O)c4ccc(NC(=O)C(C)(C)C)cc4)cc3F)C(=O)O)cn2)c1=O [Compound A54] was tested. Which IC50 did it give?
A: The IC50 was 8.4 nM.

Q: How did the IC50 turn out when Cn1ccc(=O)n(-c2ccc(C[C@H](NC(=O)c3cc(F)c(NS(=O)(=O)c4ccc(NC(=O)C5(C(F)(F)F)CC5)cc4)cc3F)C(=O)O)cn2)c1=O [Compound A55] was run?
A: The IC50 was 33 nM.

Q: Cc1cn(C)c(=O)n(-c2ccc(C[C@H](NC(=O)c3cc(F)c(NS(=O)(=O)c4ccc(NC(=O)C5(C(F)(F)F)CC5)cc4)cc3F)C(=O)O)cn2)c1=O [Compound A56] was tested. Which IC50 did it give?
A: Its IC50 is 19 nM.
